# Measurements as given in patent publication US4198507A (Hoffmann-La Roche Inc., priority 1978, dated 1980).
# Columns and labels:
# [1] = tested on: Mice; assay: Acute toxicity, mice p.o. (72 hours); assay type: in vivo
# Method: 1. Acute Toxicity LC50 Mice p.o. (72 hours)
# [2] = prior art; cited from earlier work
# [3] = prior art; cited from earlier work; remark: listed apart in the source
# [4] = tested on: gastrointestinal tract; conditions: compared with the parent xanthines; prior art; cited from earlier work
Compound,Acute Toxicity LC50 [1] [mg],water solubility (in words) [2],also measured
"O=C(O)c1ccccc1O [Magnesium Sailicylate, magnesium salicylate]",1200 ± 53,,
Cn1cnc2c1c(=O)[nH]c(=O)n2C [theobromine sodium salicylate],,soluble,
theophylline calcium salicylate,,,reaction in aqueous solutions or suspensions [3]: alkaline reactions; tolerance in the gastrointestinal tract [4]: better tolerated
"Cn1c(=O)c2[nH]cnc2n(C)c1=O [Theophylline anhydrous, 1, 3, dimethyl xanthine]",460 ± 35,,
CC(=O)[O-].Cn1c(=O)c2[nH]cnc2n(C)c1=O.[Na+] [theophylline sodium acetate],,soluble in water,
